Data taken from PMC10597491 (PLOS ONE, 2023).
Bridge positions count the residues as written; N and C are the ends. Ends that are not written are not given here.

Key:
[1] = target: T1, human IL-7Rα ECD (Homo sapiens, UniProt P16871); assay: Competition binding ELISA, human IL-7Rα ECD; conditions: immobilized IL-7Rα-(His)6 ECD; tracer biotinylated MDK1248 pre-complexed with Neutravidin-HRP; 4°C; valency-sensitive format
T1 construct: IL-7Rα(aa 21–236)-His6, Sino Biological Cat# 10975-H08H; His6 (C); purchased Sino Biological 10975-H08H
T1 sequence (P16871 21-236): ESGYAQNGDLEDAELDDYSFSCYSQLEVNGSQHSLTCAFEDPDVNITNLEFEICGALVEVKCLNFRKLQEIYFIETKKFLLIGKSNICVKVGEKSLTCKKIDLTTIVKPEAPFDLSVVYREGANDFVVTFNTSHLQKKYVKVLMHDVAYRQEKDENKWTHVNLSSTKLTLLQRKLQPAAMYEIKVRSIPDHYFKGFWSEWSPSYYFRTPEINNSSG
Description: (A, B) Determination of IC50 values in a competition ELISA for compound binding to human and cyno IL-7Rα and γc. The assay format is IL-7Rα-(His)6-tagged ECD or Fc-γc ECD immobilized on 96-well plates. Tracers are C-terminal biotinylated forms of the reference IL-7Rα and γc peptide ligands, each pre-complexed with Neutravidin-HRP (NA-HRP). (C, D) Label-free measurement of the equilibrium dissociation constant (KD) for peptide binding to IL-7Rα and γc extracellular domains with peptides was performed by biolayer interferometry as detailed in methods. Red lines depict 1:1 binding fit from Gator™ software. Blue lines represent individual BLI sensogram data taken every 0.1 seconds.
Binding was determined using a competition binding ELISA. Microtiter plates (Immulon 4HBX flat bottom 96-well) were coated with 50 μL of […] human ECDs: IL-7Rα(aa 21–236)-His6, Sino Biological Cat# 10975-H08H; cynomolgus IL-7Rα(aa 21–235)-His6, Sino Biological Cat# 90332-C08H; human IL-2Rα(aa 23–254)-Fc, Acro Cat# ILG-H5256; cynomolgus IL-2Rα(aa 23–254)-Fc, made in-house, in PBS overnight at 4°C. […] Plates were washed with cold wash buffer, and bound tracer was detected using TMB One Component HRP substrate and Stop Solution (Surmodics Cat# TMBW-1000-01 and LSTP-0100-01). Absorbance at 450 nm was read using Agilent BioTek Synergy HTX Multimode Reader.

[2] = tested on: human PBMCs; assay: Proliferation and expansion of PBMC subpopulations in culture; type: cell-based
Description: An essential feature of IL-7-mediated homeostatic lymphoid maintenance is the proliferation of naive T-cells, expanding both recent thymic emigrants and circulating TN clones to sustain the population and preserve a diverse TCR repertoire in the naive T-cell compartment. […] In the CD8+ population, Ki-67+ frequency reached a peak by day 7, declining slightly by day 16. […] The high Ki-67 background in untreated samples of Treg and NK cells may indicate a high basal turnover rate of these cell types in culture.
Data are shown as mean ± SEM. Flow cytometry gating data shown in S2 Fig.
On days 3, 7, 16, and 30, cell aliquots were taken and analyzed by flow cytometry of CD8+ T naïve and memory populations. (A) Schematic of the putative differentiation pathway of the memory T cell compartment. (B) differential gating of naïve and early memory (Tscm) subpopulations. (C) Cell counts of treated and untreated memory subpopulations over time. (D) Stacked bar representation of changes in total memory T cell subpopulations over time. […] Data are shown as mean ± SEM. Detailed gating information is provided in S4 Fig.
Frozen human PBMCs from 5 healthy donors (Stemcell Technologies, Cat# 70025.2, Lot numbers 2108409012, 2109407009, 210680104C, 210680801C, 211280501C, 220781802C) were thawed and rested overnight at 37°C, 5% CO2 in CTS™ OpTmizer™ T-Cell Expansion SFM (ThermoFisher Scientific Cat# A1048501). […] At indicated time points, cell aliquots were taken, and cell surface staining was performed using antibodies shown in S3 Table followed by viability dye staining. For Ki-67 and FoxP3 staining, surfaced stained cells were fixed and permeabilized according to the manufacturer’s instructions and analyzed immediately using the Novocyte Advanteon instrument (Agilent). The data were analyzed using FlowJo software. Fluorescence Minus One (FMO) controls were used to draw gates. Percentages of Ki-67+ cell populations were expressed as average ± SEM. Memory T-cells are as follows: Tn (CD45RA+CCR7+CD28+CD95-), Tscm (CD45RA+CCR7+CD28+CD95+), Tem (CD45RA-CCR7-), Tcm (CD45RA-CCR7+), and Temra (CD45RA+CCR7-). To count cells per well, at each assay time point 50 μL of the cells were taken from each well and incubated with 200 μL of the viability dye solution. The NovoCyte Advanteon flow cytometer was set to analyze precisely 50 μL ([…] original culture volume), which allowed the calculation of the absolute live cell counts. Because the culture volumes change over time due to splitting and removal, dilution factors were considered when calculating the total number of cells.

“Ac-GWGIPWCTLDPGSLQCAWLGKHGGGGSGGVVCQDWEGVELCWQGG (disulfide 7-16, 32-41) [MDK1472]” showed an IC50 [1] of 340 nM.

IL-7: human IL-7 cytokine (Peprotech) was tested, and the “CD4+ and CD8+ maximal counts over day 1 baseline” value ([2]; between days 7 and 16) was 5 fold, the “CD8+ Tscm cell number increase” value ([2]; day 30, 100 nM MDK-703 or 1 nM IL-7, untreated 5-fold) was 1300 fold and the “CD8+ T-cell number, increase over baseline” value ([2]; day 30 in culture, 100 nM MDK-703 or 1 nM IL-7, 5 donors) was 5.2 fold. For the same substance, the “CD8+ Temra expansion” value ([2]; over 30 days) was 7 fold.
